The values below come from patent US9943496B2, “Dietary supplement based on ethyl ferulate” (LABORATORIOS MINKAB, S. A. DE C. V., priority 2015, dated 2018).

For experiment [1], the system named is heifers. Description: Productive performance test of heifers supplemented with ethyl ferulate in the diet. The format is in vivo, Bos taurus. The settings on record: for Final weight: last 30 days of intensive feeding; for Final weight / Feed conversion / Daily gain / Feed intake: mean ± standard error; for Feed conversion / Daily gain / Feed intake: last 30 days; for Feed conversion: feed consumption/daily gain. The method, then: Productive performance test was conducted in the feedlot of a commercial farm, located in the state of Sonora, Mexico, at an altitude of 210 meters above sea level, latitude 29° 05′ 56″ and longitude 110° 57′ 15″ (INEGI, 2012).
Prior to the start of the study, 270 cattle (heifers) commercial beef producers crosses (of racial influence mainly Bos taurus), which were divided into three lots with uniform power days, racial origin and composition were selected. The animals were weighed individually and identified with plastic earring different color, to be distributed randomly according to a block design (3) complete random. To facilitate the handling of heifers and scheduling your humane slaughter, each block was postponed one week and was formed by three pens with 30 animals each.
Once done animals blocks, each pen within each block was completely randomized one of the following treatments: • Treatment CONT: Animals receiving the basal diet without additive (control). • Treatment FE5: Animals receiving the basal diet supplemented the last 30 days of fattening stage 5 ppm of ethyl ferulate. • Treatment FE10: Animals receiving the basal diet supplemented the last 30 days of the fattening phase with 10 ppm of ethyl ferulate.
The initial live weight of the animals was 484.68±2.84 kg. All animals were fed a basal diet with a ratio of forage:concentrate of 20:80, which was formulated to contain 1.62 Mcal of net energy gain/kg of feed, 12.7% crude protein, 0.91% Calcium and 0.27% phosphorus. The amount of ethyl ferulate per ton of feed was first added to the mineral premix and later it was incorporated into the automated experimental ration.
All animals were individually weighed at the beginning and end of the experimental test, for which an electronic scale Tru-Test 300 (Tru-Test Corporation, New Zealand) equipped with recording memory was used. Daily weight gain (GDP) was estimated by the difference between initial and final weight and divided by 30 (the feeding period).
Feed intake was recorded daily for corral, for which both the food offered and refused was weighed. Feed conversion per pen/treatment with the average food consumption ratio between GDP was also calculated.
(§1) Productive performance data were analyzed by ANOVA with a design of a randomized complete block using the method of generalized linear models (GLM) using initial weight as a covariate; data carcass quality were analyzed under a completely randomized design blocks. The variance analysis (mixed models procedure), included as a fixed effect to experimental treatments and as a random effect the initial weight of animals for productive performance data and final weight for carcass quality. The study data shelf life was analyzed using analysis of variance of two ways, considering the fixed effects of treatment and storage time. When differences between treatments were detected in productive performance variables and carcass quality, comparisons of means were performed by orthogonal contrasts. The following contrasts were tested: Contrast 1: Control vs FE5+FE10; Contrast 2: FE5 vs FE10. For data quality meat in the study of oxidative stability, the comparison of means was by the Tukey test. All data were processed in the statistical package NCSS (NCSS Version 8.0, 2012).

In experiment [2] the test system is heifers. Description: Sacrifice and evaluation of carcass quality of supplemented heifers. Format: in vivo, Bos taurus. Particulars: for Backfat / Cold carcass yield / Hot yield carcass / Rib eye area / Cold carcass weight / Hot carcass weight: last 30 days; for Cold carcass weight: 24 h postmortem; for Hot carcass weight: mean ± standard error; for Marbling: USDA marbling score (Little 500-599, Modesto 600-699); for % de Choice or greater: percentage of carcass classified Choice or higher. The method, then: Once the productive performance test was finished, the animals were sacrificed following the current regulations.
The pH was measured at 45 min and 24 h postmortem in the Longissimus dorsi (LD) at the 12th intercostal space using a portable digital potentiometer brand HANNA HI 99163 (Mettler-Toledo Process Analytical Inc., Wilmington, Mass., USA). The weight of the hot carcass was recorded, then the carcasses were cooled to 0° C. for 24 h.
At 24 h postmortem the weight of the cold carcass was measured. In at least 36 carcasses per treatment, area in cm^2 rib eye, the thickness of back fat in mm, was evaluated. The degree of marbling was also evaluated following USDA guidelines (2000): Trace (300-399), Light (400-499), Little (500-599), Modest (600-699), Moderate (700-799), Slightly abundant (800-899). These determinations were made in the LD muscle to level 12th intercostal space. Finally, the quality level of the channel according to USDA (2000) was estimated, based on the degree of marbling and carcass physiological maturity: Select − (400-449), Select + (450-499) Choice − (500-599), Choice medium (600-699), Choice + (700-799), Prime (800 or greater).
as §1

For experiment [3] the following is noted: compared with ferulic acid; cited from earlier work.
The subject of a further experiment is β receptors. The settings on record: bovine satellite cells, in vitro; cited from earlier work.
The next experiment relates to swine. The settings on record: 50 ppm, swine confinement; cited from earlier work.
Where [4] appears, read: contrast C1: Control vs FE5+FE10, P<0.05.
The mark [5] stands for this setting: FE supplemented vs control, P<0.05.

Take `CCOC(=O)/C=C/c1ccc(O)c(OC)c1` [ethyl ferulate]: in the experiment on heifers [1] (FE5: 5 ppm/day), the Final weight is given as 519.58 ± 5.4 kg, the Feed conversion was found to be 8.78 ± 0.6 kg, the Daily gain is given as 1.13 ± 0.04 kg and the Feed intake is reported as 8.11 ± 0.07 kg. Moreover, in the experiment on heifers [1] (FE10: 10 ppm/day), the Final weight worked out at 520.20 ± 5.63 kg, the Feed conversion is 7.25 ± 0.27 kg, the Daily gain is reported as 1.23 ± 0.04 kg and the Feed intake was found to be 8.09 ± 0.07 kg. In the experiment with heifers [1] (FE supplemented heifers vs control), the “Less feed required to gain one kilogram of live weight” value came out at 4.3 kg. Further, in the experiment with heifers [1] (setting [4]), the “Improvement in feed conversion relative to control” value came out at 35% and the “Increase of daily gain (GDP) relative to control” value was 26%. The “Thickness of the dorsal fat, effect of treatments” value with heifers [2] (5 and 10 ppm vs control, P>0.05) is reported as “not affected by treatments”. The “Marbling, 10 ppm FE regarding 5 ppm FE” value with heifers [2] (10 ppm vs 5 ppm) is listed as “higher marbling”. For the same molecule, in the experiment with heifers [2] (FE5: 5 ppm/day), the Backfat is listed as 14.60 ± 1.05 mm, the Cold carcass yield came to 61.77 ± 0.16%, the Hot yield carcass is listed as 62.38 ± 0.15% and the Rib eye area came to 85.67 ± 2.28 cm^2. Also, in the experiment with heifers [2] (FE5: 5 ppm/day), the Cold carcass weight turned out to be 320.81 ± 3.25 kg, the Hot carcass weight is 323.97 ± 3.25 kg, the Marbling is 578.57 ± 16 and the “% de Choice or greater” value is 66.7%. Moreover, in the experiment on heifers [2] (FE10: 10 ppm/day), the Backfat worked out at 15.82 ± 0.84 mm, the Cold carcass yield is listed as 61.68 ± 0.19%, the Hot yield carcass is 62.39 ± 0.19% and the Rib eye area was 86.60 ± 1.87 cm^2. Further, in the experiment with heifers [2] (FE10: 10 ppm/day), the Cold carcass weight is reported as 320.50 ± 3.19 kg, the Hot carcass weight is 324.19 ± 3.23 kg, the Marbling worked out at 637.14 ± 15 and the “% de Choice or greater” value was 80%. Also, the “Hot carcass weight (PCC) greater than control” value in the experiment with heifers [2] (FE supplemented heifers vs control, P<0.001) is 1.80%. For the same molecule, in the experiment on heifers [2] (setting [5]), the “Increase of cold carcass weight (PCF) vs control” value turned out to be 1.86% and the “Marbling of supplemented compared to non supplemented animals” value was “More marbling”. Also, in the experiment on heifers [2] (hot carcass, FE supplemented vs control), the “Increase in carcass weight vs control” value is reported as “more than 5 kg”. In experiment [3], the “Antibacterial and antioxidant capacity” value is given as “very similar to those of ferulic acid”.

For the molecule `COc1cc(/C=C/C(=O)O)ccc1O` [AF, Ferulic acid], the “Recognition by β receptors on the cell membrane” value in the experiment with β receptors is listed as “recognized by β receptors”. The “Back fat thickness over the control group” value with swine is “decrease”.
